Where two headings read alike, the source gives them in different places.

Assay [1] has as its target T1, Trypanosoma cruzi glucokinase (TcGlcK) (Trypanosoma cruzi, UniProt Q4E4E1).
T1 construct: made in house
T1 sequence (Q4E4E1 1-376): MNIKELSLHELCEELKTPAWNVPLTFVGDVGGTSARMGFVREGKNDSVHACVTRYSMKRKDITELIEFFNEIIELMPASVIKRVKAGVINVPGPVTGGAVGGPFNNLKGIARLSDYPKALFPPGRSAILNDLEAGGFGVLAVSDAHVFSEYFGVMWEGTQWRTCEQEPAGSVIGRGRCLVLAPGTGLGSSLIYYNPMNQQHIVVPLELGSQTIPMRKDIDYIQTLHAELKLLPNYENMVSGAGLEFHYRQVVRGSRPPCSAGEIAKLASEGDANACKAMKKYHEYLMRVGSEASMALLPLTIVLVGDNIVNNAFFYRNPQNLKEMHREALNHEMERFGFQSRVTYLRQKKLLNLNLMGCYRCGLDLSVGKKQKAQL
Description: TcGlcK-HsΔG6PDH-diaphorase coupled assay, IC50 determination. The class given is biochemical. The protocol: The TcGlcK assay was performed through its linking with the HsΔG6PDH-diaphorase enzyme-coupled assay system as schematically illustrated in FIG. 1. All of the compounds were tested in quadruplicate using the JANUS-MDT liquid handler equipped with a 384-tip head that was used to transfer 22 μL of a reagent mix [130 U/mL HsΔG6PDH, 100 mM NADP+, 1 kU/mL diaphorase, 10 mM resazurin, and 19 μM TcGlcK in a reaction buffer (see below)], 0.5 μL of 1 mM compounds in 100% DMSO (from the daughter plate, see above), and 2.5 μL of a substrate mix [4 mM D-glucose and 6 mM ATP in a reaction buffer] to a 384-well plate (total volume per well was 25 μL). The reaction buffer was 0.1 M triethanolamine (pH 8.5), 8.0 mM MgCl2, and 0.01% (v/v) Triton X-100. The final assay concentrations (FACs) were 0.5 U/mL HsΔG6PDH, 100 μM NADP+, 1 U/mL diaphorase, 20 μM resazurin, 2.5 nM TcGlcK, 20 μM compounds (from the daughter plate, see above), 0.4 mM D-glucose, 0.6 mM ATP, 0.1 M triethanolamine (pH 8.5), 8 mM MgCl2, and 0.01% (v/v) Triton X-100. […] The assay was carried out using 384-well, black, v-bottom microplates (Greiner Bio-One) with a final volume of 25 μL per well. Pipetting steps were performed with a liquid handler having a 384-tip head, JANUS-MDT from Perkin Elmer (Waltham, Mass.). Compounds that gave rise to TcGlcK enzyme activity in the presence of 20 μM compound (EA20) that results in less than 65%) were categorized as unconfirmed hits to proceed as candidates. The methodology is schematically illustrated in FIG. 2.
Determination of the IC50 values was performed by the TcGlcK—HsΔG6PDH—diaphorase coupled assay, in which reaction velocities were obtained at various concentrations of inhibitors. In 96-well plates, solutions of the inhibitors were prepared by serial dilution. Briefly, column 1 served as a control having an inhibitor concentration of zero; however, columns 2 through 12 on a given row had 11 different inhibitor concentrations from a serial dilution. Using the JANUS-MDT liquid handler with a 96-tip head, assay reactions were carried out in quadruplicate in a 384-well plate and the following components were transferred per well: 44 μL of a reagent mix [130 U/mL HsΔG6PDH, 100 mM NADP^+, 1 kU/mL diaphorase, 10 mM resazurin, and 19 μM TcGlcK in a reaction buffer (0.1 M triethanolamine (pH 8.5), 8.0 mM MgCl2, and 0.01% (v/v) Triton X-100)], 1 uL of 1 mM compound solutions in 100% DMSO, and 5 μL of a substrate mix [4 mM D-glucose and 6 mM ATP in the same reaction buffer]. The Envision microplate reader (PerkinElmer) was used to monitor the formation of resorufin in the fluorescence mode (λex=530 nm; λem=615 nm). Reaction velocities were measured and normalized by the controls. Values of IC50 were calculated using the GraphPad Prism 6.0 software from nonlinear regression of the data.

Assay [2] deals with T. cruzi infective form (amastigotes and trypomastigotes) (Tulahuen strain) in NIH-3T3 fibroblasts. The assay can be described thus: T. cruzi viability assay in NIH-3T3 fibroblasts. The settings on record: for viability at 80 µM / EC50: Trypanosoma cruzi, TULAHUEN, NIH3T3; for Trypanocidal activity class: class by % viability at 80 μM; for in vitro T. cruzi EC50 compared with benznidazole: infective form co-cultured in NIH-3T3 fibroblasts.

Where [3] appears, read: TcGlcK - inhibitor IC50, enzymatic coupled assay, read-out: IC50.

Broadly, the IC50 is the concentration that gives 50% inhibition. As usually defined, the viability is the share of living cells, or the viability signal relative to a control. The compound `O=C1NC(=O)C(=Cc2ccc(N3CCOCC3)cc2)C(=O)N1` [Compound 2e] registered an IC50 in assay [1] of 1.7 µM. The same compound returned a viability at 80 µM in assay [2] of 88 ± 9.4%.

For the compound `O=[N+]([O-])C1=Cc2c(ccc3ccccc23)O[C@H]1c1ccc2c(c1)OCO2` [Compound 4e], the viability at 80 µM in assay [2] was found to be 0%.

The EC50 is the midpoint of the concentration-response curve. High values mean a less potent agent, low ones a more potent agent. On to `Cc1cc2c(c(O)c1-c1c(C)cc3c(c1O)C(=CNc1ccc(S(=O)(=O)NC(=N)N)cc1)C(=O)C(O)=C3C(C)C)C(=CNc1ccc(S(=O)(=O)NC(=N)N)cc1)C(=O)C(O)=C2C(C)C` [Compound 6a], for which the IC50 in assay [1] (setting [3]) is 13.2 µM. Further, in assay [2], it took 8.62 ± 0.493 µM to reach a half-maximal effect (EC50), the viability at 80 µM is 0% and the Trypanocidal activity class entry was “active”.

`Cc1cc2c(c(O)c1-c1c(C)cc3c(c1O)/C(=C/Nc1ccc(Cc4ccc(N)cc4)cc1)C(=O)C(O)=C3C(C)C)/C(=C/Nc1ccc(Cc3ccc(N)cc3)cc1)C(=O)C(O)=C2C(C)C` [Compound 6d]: the half-maximal inhibitory concentration (IC50) in assay [1] (setting [3]) turned out to be 61.6 µM. In addition, the viability at 80 µM in assay [2] was determined as 63.3 ± 0.4%.

In assay [1], `Cc1cc(N2CCOCC2)ccc1/C=C1/C(=O)NC(=O)N(c2ccc3c(c2)OCO3)C1=O` [Compound 2b] gave an IC50 of 1.1 µM. This compound had a viability at 80 µM in assay [2] of 57 ± 2.8%.

The compound `O=C(O)C1Nc2c(I)cccc2C2C=CCC12` (stereo not drawn) [Compound 8] came in with a viability at 80 µM in assay [2] of 44.3 ± 5.1%.

Consider `O=C1NC(=O)C(=Cc2ccc3c(c2)OCO3)C(=O)N1` [Compound 2h], for which, in assay [1], the IC50 was found to be 8.7 µM. This compound returned a viability at 80 µM in assay [2] of 81.2 ± 13.7%.

As for `O=C1C(=Cc2ccco2)C(=O)N(c2ccccc2)C(=O)N1c1ccccc1` [Compound 2a], the IC50 in assay [1] was found to be 0.6 µM. Moreover, the viability at 80 µM in assay [2] came out at 66.5 ± 22.3%.

Take `COc1cc(S(=O)(=O)Nc2cccc(Cl)c2C)c(C)cc1C` [Compound 1c]: the viability at 80 µM in assay [2] came out at 0%.

As to `Cc1nn(-c2ccccc2)c2c1[C@@H](c1ccc(F)cc1)C(C#N)=C(N)O2` [Compound 5b], the IC50 in assay [1] (setting [3]) was found to be 17.1 µM. The viability at 80 µM in assay [2] is 87.1 ± 3.3%.

With `CCOc1ccc([C@@H]2Oc3ccccc3C=C2[N+](=O)[O-])cc1OCC` [Compound 4d], the IC50 in assay [1] (setting [3]) is 69.1 µM. This compound also came in with a viability at 80 µM in assay [2] of 0%.

As to `O=C1NC(=O)C(=Cc2ccc(O)c(O)c2)C(=O)N1` [Compound 2g], the IC50 in assay [1] amounted to 4.2 µM. Besides, the viability at 80 µM in assay [2] worked out at 62.8 ± 11.6%.

For the compound `COc1ccc(S(=O)(=O)Nc2ccc(F)c(F)c2)cc1I` [Compound 1e], in assay [2], the viability at 80 µM is 0%.

As to `COc1ccc(S(=O)(=O)Nc2ccc3ccccc3c2)cc1Cl` [Compound 1f], in assay [2], the viability at 80 µM came out at 0%.

Compound `Nc1c(C(=O)c2cccc([N+](=O)O)c2)sc2nc(-c3cccnc3)ccc12` [Compound 9] yielded a viability at 80 µM in assay [2] of 52.7 ± 7.9%.

`CCOc1cc(S(=O)(=O)Nc2ccc(Cl)cc2)ccc1F` [Compound 1h] returned a viability at 80 µM in assay [2] of 0%.

With `COc1ccc(S(=O)(=O)Nc2ccccc2)cc1F` [Compound 1l], the viability at 80 µM in assay [2] was determined as 34.6 ± 4.3%.

With `COc1ccc(S(=O)(=O)Nc2cccc(Br)c2)c(Cl)c1Cl` [Compound 1a], the IC50 in assay [1] (setting [3]) is 7.2 µM. In addition, in assay [2], the EC50 stood at 13.3 ± 0.3 µM, the viability at 80 µM was determined as 0% and the Trypanocidal activity class result is reported as “active”.

In assay [2], `CCOc1ccc(S(=O)(=O)Nc2cccc(Cl)c2C)cc1C` [Compound 1j] yielded a viability at 80 µM of 0%.

Take `O=C1NC(=O)C(=Cc2ccc(Br)s2)C(=O)N1` [Compound 2f]: 2.4 µM corresponded to half-maximal inhibition in assay [1] (IC50). The viability at 80 µM in assay [2] came out at 74.2 ± 5.3%.

For `COc1ccc(Br)cc1[C@H]1C(C#N)=C(N)Oc2c1c(C)nn2-c1ccccc1` [Compound 5a], the IC50 in assay [1] (setting [3]) was determined as 18.8 µM. The viability at 80 µM in assay [2] was found to be 0%.

`CN1C(=O)C(=Cc2ccc(N(C)C)cc2)C(=O)N(C)C1=O` [Compound 2c] had an IC50 in assay [1] of 5.5 µM. The same compound registered a viability at 80 µM in assay [2] of 79 ± 4%.

In assay [2], `c1ccc([C@@H]2CCCN2)nc1` [Compound 7] returned a viability at 80 µM of 84.3 ± 0.5%.

As to `COc1ccc(S(=O)(=O)Nc2cccc(SC)c2)cc1F` [Compound 1b], the viability at 80 µM in assay [2] worked out at 0%.

As to `O=S(=O)(Nc1ccc(O)cc1)c1cc(Cl)ccc1Cl` [Compound 1m], the viability at 80 µM in assay [2] was found to be 0.6 ± 2.9%.

In assay [2], `Cc1ccc(-n2nc(C)c3c2OC(N)=C(C#N)[C@H]3c2ccoc2)cc1` [Compound 5c] registered a viability at 80 µM of 80.6 ± 3.9%.

In assay [1], `COc1ccc(Br)cc1/C=C1/C(=O)NC(=O)N(CCC2=CCCCC2)C1=O` [Compound 2d] gave an IC50 of 13.7 µM. The same compound registered a viability at 80 µM in assay [2] of 88.7 ± 15.1%.

In assay [2], `COc1ccc(NS(=O)(=O)c2ccc(Cl)c(C)c2Cl)cc1` [Compound 1d] showed a viability at 80 µM of 0%.

For `CCOc1ccc(S(=O)(=O)Nc2c(F)cccc2F)cc1Cl` [Compound 1i], the viability at 80 µM in assay [2] turned out to be 4.9 ± 4.7%.

As for `CCOc1ccc([C@@H]2Oc3ccc(Br)cc3C=C2[N+](=O)[O-])cc1OC` [Compound 4b], the IC50 in assay [1] (setting [3]) was determined as 6.5 µM. For the same compound, in assay [2], the EC50 worked out at 2.17 ± 0.045 µM, the viability at 80 µM was found to be 0%, the Trypanocidal activity class entry is on record as “active” and the “in vitro T. cruzi EC50 compared with benznidazole” value is on record as “very similar in vitro T. cruzi EC50 values to that of benznidazole”.

As to `COc1ccc(S(=O)(=O)Nc2ccc(Br)cc2F)cc1Cl` [Compound 1g], the viability at 80 µM in assay [2] worked out at 0%.

Regarding `COc1ccc(F)cc1S(=O)(=O)Nc1ccc(Cl)cc1` [Compound 1n], in assay [2], the viability at 80 µM was found to be 2.4 ± 7.4%.

On to `COc1ccc(S(=O)(=O)Nc2cc(Cl)ccc2Cl)c(C)c1C` [Compound 1k], for which the viability at 80 µM in assay [2] turned out to be 0%.

In assay [2], `N#Cc1ccc(-c2cccnc2)nc1SCC(=O)O` [Compound 11] came in with a viability at 80 µM of 86.5 ± 0.9%.

For the compound `Cc1cc2c(c(O)c1-c1c(C)cc3c(c1O)/C(=C/Nc1cccc4c(N)cccc14)C(=O)C(O)=C3C(C)C)/C(=C/Nc1cccc3c(N)cccc13)C(=O)C(O)=C2C(C)C` [Compound 6b], the IC50 in assay [1] (setting [3]) came out at 16.5 µM. The viability at 80 µM in assay [2] was 1.7 ± 2.7%.

In the case of `Cc1nn(-c2cccc(Cl)c2)c2c1[C@@H](c1cc([N+](=O)[O-])ccc1Cl)C(C#N)=C(N)O2` [Compound 5d], in assay [2], the viability at 80 µM was 0%.

The compound `COc1ccc(C(=O)Nc2sc3c(c2C(N)=O)CCCCC3)cc1OC` [Compound 10] returned a viability at 80 µM in assay [2] of 50.5 ± 3.4%.

Turning to `Cc1cc2c(c(O)c1-c1c(C)cc3c(c1O)/C(=C/Nc1c(O)cc(S(=O)(=O)O)c4ccccc14)C(=O)C(O)=C3C(C)C)/C(=C/Nc1c(O)ccc3c(S(=O)(=O)O)cccc13)C(=O)C(O)=C2C(C)C` [Compound 6c], the IC50 in assay [1] (setting [3]) is 30.2 µM. For the same compound, the viability at 80 µM in assay [2] stood at 20.4 ± 10.3%.

As to `CCOc1ccc([C@@H]2Oc3c(Cl)cc(Cl)cc3C=C2[N+](=O)[O-])cc1OCC` [Compound 4a], the IC50 in assay [1] (setting [3]) is 4.8 µM. Also, in assay [2], the 50% effective concentration (EC50) turned out to be 2.98 ± 0.227 µM, the viability at 80 µM turned out to be 0%, the Trypanocidal activity class result is given as “active” and the “in vitro T. cruzi EC50 compared with benznidazole” value is reported as “very similar in vitro T. cruzi EC50 values to that of benznidazole”.

As to `COc1ccc([C@@H]2Oc3ccccc3C=C2[N+](=O)[O-])cc1OC` [Compound 4c], the IC50 in assay [1] (setting [3]) worked out at 53.2 µM. The viability at 80 µM in assay [2] is 0%.

Source of the values: patent US10682359B2, “Inhibitors of glucose kinases, along with methods of their formation and use” (University of South Carolina, priority 2017, dated 2020).
